Measured values as given in PubChem BioAssay AID256 (DTP/NCI, 2004).
Toxic doses and inconclusive results are not listed. How the source made its calls: active means survival T/C of 150% or more; inactive means T/C below 125% in these data.

Test system: CD2F1 mice, L1210 leukemia ip, survival T/C
Assay: NCI In Vivo Anticancer Drug Screen. Data for tumor model L1210 Leukemia (intraperitoneal) in CD2F1 (CDF1) mice
Settings: endpoint: mean survival time, higher = longer survival
Procedure, shortened: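 Mice carrying a transplanted tumor received test compound or vehicle alone. The value is the measurement in the treated group divided by that in the vehicle-treated control group.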

[1] = dose: 50.0 mg/kg/injection, schedule: Q01DX009 (ip), vehicle: Klucel (hydroxypropylcellulose) (HPC)
[2] = dose: 100.0 mg/kg/injection, schedule: Q01DX009 (ip), vehicle: Klucel (hydroxypropylcellulose) (HPC)
[3] = dose: 200.0 mg/kg/injection, schedule: Q01DX009 (ip), vehicle: Klucel (hydroxypropylcellulose) (HPC)
[4] = dose: 50.0 mg/kg/injection, schedule: Q01DX009 (ip), vehicle: saline with Tween-80
[5] = dose: 100.0 mg/kg/injection, schedule: Q01DX009 (ip), vehicle: saline with Tween-80
[6] = dose: 100.0 mg/kg/injection, schedule: Q04DX003 (ip), vehicle: saline with Tween-80
[7] = dose: 200.0 mg/kg/injection, schedule: Q01DX009 (ip), vehicle: saline with Tween-80
[8] = dose: 200.0 mg/kg/injection, schedule: Q04DX003 (ip), vehicle: saline with Tween-80
[9] = dose: 100.0 mg/kg/injection, schedule: Q01DX001 (ip), vehicle: carboxymethylcellulose (CMC)
[10] = dose: 200.0 mg/kg/injection, schedule: Q01DX001 (ip), vehicle: carboxymethylcellulose (CMC)
[11] = dose: 75.0 mg/kg/injection, schedule: Q01DX001 (ip), vehicle: other
[12] = dose: 150.0 mg/kg/injection, schedule: Q01DX001 (ip), vehicle: other
[13] = dose: 300.0 mg/kg/injection, schedule: Q01DX001 (ip), vehicle: other
[14] = dose: 100.0 mg/kg/injection, schedule: Q01DX001 (ip), vehicle: saline
[15] = dose: 200.0 mg/kg/injection, schedule: Q01DX001 (ip), vehicle: saline
[16] = dose: 400.0 mg/kg/injection, schedule: Q01DX001 (ip), vehicle: saline
[17] = dose: 400.0 mg/kg/injection, schedule: Q01DX009 (ip), vehicle: saline with Tween-80
[18] = dose: 400.0 mg/kg/injection, schedule: Q04DX003 (ip), vehicle: saline with Tween-80
[19] = dose: 25.0 mg/kg/injection, schedule: Q01DX009 (ip), vehicle: saline with Tween-80
[20] = dose: 12.5 mg/kg/injection, schedule: Q01DX009 (ip), vehicle: other
[21] = dose: 25.0 mg/kg/injection, schedule: Q01DX009 (ip), vehicle: other
[22] = dose: 50.0 mg/kg/injection, schedule: Q01DX009 (ip), vehicle: other
[23] = dose: 100.0 mg/kg/injection, schedule: Q01DX009 (ip), vehicle: other
[24] = dose: 100.0 mg/kg/injection, schedule: Q01DX001 (ip), vehicle: saline with Tween-80
[25] = dose: 200.0 mg/kg/injection, schedule: Q01DX001 (ip), vehicle: saline with Tween-80
[26] = dose: 400.0 mg/kg/injection, schedule: Q01DX001 (ip), vehicle: saline with Tween-80

Measured: T/C

CN(C)Cc1ccc(C(C)(C)C)cc1Br
inactive: dose: 12.5 mg/kg/injection, schedule: Q01DX009 (ip), vehicle: water 98 % of control | dose: 25.0 mg/kg/injection, schedule: Q01DX009 (ip), vehicle: water 95 % of control | dose: 50.0 mg/kg/injection, schedule: Q01DX009 (ip), vehicle: water 98 % of control | dose: 100.0 mg/kg/injection, schedule: Q01DX009 (ip), vehicle: water 98 % of control | dose: 200.0 mg/kg/injection, schedule: Q01DX009 (ip), vehicle: water 104 % of control

O=C(NNC(=O)c1ccncc1)NS(=O)(=O)c1ccc(Cl)cc1
inactive: [1] 101 % of control | [2] 90 % of control | [3] 97 % of control

Cc1c(N=O)c(-c2ccccc2)n(O)[n+]1[O-]
inactive: [1] 104 % of control | [2] 104 % of control | [3] 101 % of control

ClC1CCC[N-]C1.ClC1CCC[N-]C1.[Cl][Pt+2][Cl] (stereo not drawn)
inactive: dose: 0.78 mg/kg/injection, schedule: Q01DX009 (ip), vehicle: saline 103 % of control | dose: 1.56 mg/kg/injection, schedule: Q01DX009 (ip), vehicle: saline 94 % of control | dose: 3.13 mg/kg/injection, schedule: Q01DX009 (ip), vehicle: saline 102 % of control | dose: 6.25 mg/kg/injection, schedule: Q01DX009 (ip), vehicle: saline 96 % of control | dose: 12.5 mg/kg/injection, schedule: Q01DX009 (ip), vehicle: saline 89 % of control | [4] 108 % of control | [5] 95 % of control

COc1ccc([Si](C)(C)CNCCSS(=O)(=O)O)cc1
inactive: [4] 97 % of control | [5] 103 % of control | [6] 101 % of control | [7] 92 % of control | [8] 95 % of control

CS(=O)(=O)OC1CCCSc2ccccc21 (stereo not drawn)
inactive: [9] 103 % of control | [10] 97 % of control | dose: 400.0 mg/kg/injection, schedule: Q01DX001 (ip), vehicle: carboxymethylcellulose (CMC) 97 % of control

CN(C)N=Nc1c(-c2cccs2)n[nH]c1C(F)(F)F
inactive: [11] 103 % of control | [12] 103 % of control | [13] 105 % of control

CCCOC(=O)C(C(=O)OCCC)(C(=O)OCCC)C(=O)OCCC
inactive: [14] 96 % of control | [15] 107 % of control | [16] 93 % of control

O=C(O)/C=C\C(=O)Nc1ccc(Cl)cc1Cl
inactive: [5] 103 % of control | [7] 95 % of control

O=C1OC(=O)C2C3CC(C(Br)C3Br)C12 (stereo not drawn)
inactive: [14] 97 % of control | [5] 106 % of control | [15] 98 % of control | [7] 104 % of control | [16] 97 % of control | [17] 101 % of control

O=C(O)CN(CCO)CCO
inactive: dose: 100.0 mg/kg/injection, schedule: Q04DX003 (ip), vehicle: saline 100 % of control | dose: 200.0 mg/kg/injection, schedule: Q04DX003 (ip), vehicle: saline 102 % of control | dose: 400.0 mg/kg/injection, schedule: Q04DX003 (ip), vehicle: saline 102 % of control

COC1OC(COC(=O)c2ccccc2)C2OC(=O)OC12 (stereo not drawn)
inactive: [6] 93 % of control | [8] 90 % of control | [18] 102 % of control

CCN(CC)CC(O)CNc1ncnc(N)c1C(=C(C)C)c1ccc(Cl)cc1 (stereo not drawn)
inactive: [19] 101 % of control | [4] 97 % of control | [5] 97 % of control | [6] 101 % of control

CN(C)N=Nc1c(F)c(F)c(F)c(F)c1F
inactive: [20] 98 % of control | [21] 102 % of control | [19] 106 % of control | [22] 104 % of control | [4] 104 % of control | [23] 104 % of control | [5] 107 % of control | dose: 200.0 mg/kg/injection, schedule: Q01DX009 (ip), vehicle: other 115 % of control

CCCCCCCCCCCCCCCC(=O)N(CCCN)c1ccc(N(CCCN)C(=O)CCCCCCCCCCCCCCC)cc1
inactive: [6] 98 % of control | [8] 98 % of control | [18] 97 % of control

COc1ccc2c(c1C)CN1CCc3cc4c(cc3C1=C2)OCO4
inactive: [11] 94 % of control | [12] 88 % of control | [13] 88 % of control

CC(=O)c1ccc(N=NC2C(=O)N(c3ccccc3)N=C2C)cc1 (stereo not drawn)
inactive: [7] 87 % of control | [17] 95 % of control

CC(=O)C(C)C(C)=O
inactive: [5] 105 % of control | [7] 107 % of control | [17] 102 % of control

C[C@]12CCC(=O)C=C1CC[C@H]1[C@@H]3CC[C@](O)(C(=O)CF)[C@@]3(C)C[C@H](O)[C@@]12F
inactive: dose: 50.0 mg/kg/injection, schedule: Q01DX001 (sc), vehicle: saline sonified 103 % of control | dose: 50.0 mg/kg/injection, schedule: Q04DX003 (sc), vehicle: Klucel (hydroxypropylcellulose) (HPC) 104 % of control | dose: 100.0 mg/kg/injection, schedule: Q01DX001 (sc), vehicle: saline sonified 101 % of control | dose: 100.0 mg/kg/injection, schedule: Q04DX003 (sc), vehicle: Klucel (hydroxypropylcellulose) (HPC) 102 % of control | dose: 200.0 mg/kg/injection, schedule: Q01DX001 (sc), vehicle: saline sonified 103 % of control | dose: 200.0 mg/kg/injection, schedule: Q04DX003 (sc), vehicle: Klucel (hydroxypropylcellulose) (HPC) 104 % of control

CCOC(=O)c1ccc2c(c1)Cc1cc(N)ccc1-2
inactive: [9] 98 % of control | [10] 95 % of control

O=C(Nc1ccccc1)Nc1ccccc1C(=O)O
inactive: [24] 100 % of control | [25] 95 % of control | [26] 94 % of control

COC(=O)C(Br)C1CCCCC1 (stereo not drawn)
inactive: [4] 95 % of control | [5] 102 % of control | [6] 100 % of control | [7] 93 % of control | [8] 102 % of control

CCC(C)(C)c1ccc(O)cc1
inactive: [6] 104 % of control | [8] 98 % of control

Nc1cc2c(c[n+](CCO)c3ccccc23)c2ccccc12
inactive: dose: 12.5 mg/kg/injection, schedule: Q04DX003 (ip), vehicle: water 103 % of control | dose: 25.0 mg/kg/injection, schedule: Q04DX003 (ip), vehicle: water 104 % of control | dose: 50.0 mg/kg/injection, schedule: Q04DX003 (ip), vehicle: water 110 % of control | dose: 100.0 mg/kg/injection, schedule: Q04DX003 (ip), vehicle: water 120 % of control | dose: 200.0 mg/kg/injection, schedule: Q04DX003 (ip), vehicle: water 120 % of control

CCN1/C(=C/C=C/c2oc3ccc4ccccc4c3[n+]2CC)Oc2ccc3ccccc3c21
inactive: dose: 9.5 mg/kg/injection, schedule: Q01DX001 (ip), vehicle: other 104 % of control | dose: 19.0 mg/kg/injection, schedule: Q01DX001 (ip), vehicle: other 112 % of control | dose: 38.0 mg/kg/injection, schedule: Q01DX001 (ip), vehicle: other 118 % of control

Cc1cc(=O)oc2cc(OC(=O)C(CCCCN)NC(=O)OCc3ccccc3)ccc12 (stereo not drawn)
inactive: [20] 107 % of control | [21] 106 % of control | [22] 107 % of control | [23] 101 % of control

N#CSC/C(=N\Nc1ccc([N+](=O)[O-])cc1[N+](=O)[O-])c1ccccc1
inactive: dose: 100.0 mg/kg/injection, schedule: Q04DX003 (ip), vehicle: saline sonified 103 % of control | dose: 200.0 mg/kg/injection, schedule: Q04DX003 (ip), vehicle: saline sonified 102 % of control | dose: 400.0 mg/kg/injection, schedule: Q04DX003 (ip), vehicle: saline sonified 103 % of control

O=[C-]CC(=O)c1ccccc1.O=[C-]CC(=O)c1ccccc1.[Fe+2]
inactive: [24] 95 % of control | [25] 87 % of control | [26] 89 % of control

CCCCN(CCCC)C(=O)Nc1ccccc1
inactive: [14] 100 % of control | [15] 100 % of control | [16] 98 % of control
